From ChEMBL document CHEMBL1143853, “Daptomycin nonsusceptibility in Staphylococcus aureus with reduced vancomycin susceptibility is independent of alterations in MprF” (2007)
Converted amounts (≈) assume the structure as drawn.

Experiments:
Staphylococcus aureus [1] = experiment: Antimicrobial activity against methicillin-resistant Staphylococcus aureus A6298 by agar dilution method; type: functional
Staphylococcus aureus [2] = experiment: Antimicrobial activity against methicillin-resistant Staphylococcus aureus A8799 with mprF S337L mutation by agar dilution method; type: functional
Staphylococcus aureus [3] = experiment: Antimicrobial activity against methicillin-resistant Staphylococcus aureus A8796 by agar dilution method
Staphylococcus aureus [4] = experiment: Antimicrobial activity against methicillin-resistant Staphylococcus aureus A6300 by agar dilution method; type: functional
Staphylococcus aureus [5] = experiment: Antimicrobial activity against methicillin-resistant Staphylococcus aureus A8090 by agar dilution method
Staphylococcus aureus [6] = experiment: Antimicrobial activity against methicillin-resistant Staphylococcus aureus A6224 by agar dilution method
Staphylococcus aureus [7] = experiment: Antimicrobial activity against methicillin-resistant Staphylococcus aureus A8094 by agar dilution method; type: functional
Staphylococcus aureus [8] = experiment: Antimicrobial activity against methicillin-resistant Staphylococcus aureus A6226 by agar dilution method; type: functional

SMILES: CCCCCCCCCC(=O)N[C@@H](Cc1c[nH]c2ccccc12)C(=O)N[C@H](CC(N)=O)C(=O)N[C@@H](CC(=O)O)C(=O)N[C@@H]1C(=O)NCC(=O)N[C@@H](CCCN)C(=O)N[C@@H](CC(=O)O)C(=O)N[C@H](C)C(=O)N[C@@H](CC(=O)O)C(=O)NCC(=O)N[C@H](CO)C(=O)N[C@@H]([C@H](C)CC(=O)O)C(=O)N[C@@H](CC(=O)c2ccccc2N)C(=O)O[C@@H]1C
- MIC (Staphylococcus aureus [1]): 2 µg/mL (≈ 1.23 µM)
- MIC (Staphylococcus aureus [2]): 2 µg/mL (≈ 1.23 µM)
- MIC (Staphylococcus aureus [3]): 0.5 µg/mL (≈ 0.309 µM)
- MIC (Staphylococcus aureus [4]): 1 µg/mL (≈ 0.617 µM)
- MIC (Staphylococcus aureus [5]): 0.5 µg/mL (≈ 0.309 µM)
- MIC (Staphylococcus aureus [6]): 0.5 µg/mL (≈ 0.309 µM)
- MIC (Staphylococcus aureus [7]): 2 µg/mL (≈ 1.23 µM)
- MIC (Staphylococcus aureus [8]): 2 µg/mL (≈ 1.23 µM)
